IC50 data for 32 compounds are collected here from patent US10669242B2 (priority 2016, dated 2020).

Counter-ions that a name gives are not always drawn.

The target of this assay is T1, recombinant glucosyltransferase domain of C. difficile Toxin B/TcdB (Clostridioides difficile, UniProt P18177).
T1 construct: 6-His (C); purchased R&D Systems 6246-GT
T1 sequence (P18177 1-543): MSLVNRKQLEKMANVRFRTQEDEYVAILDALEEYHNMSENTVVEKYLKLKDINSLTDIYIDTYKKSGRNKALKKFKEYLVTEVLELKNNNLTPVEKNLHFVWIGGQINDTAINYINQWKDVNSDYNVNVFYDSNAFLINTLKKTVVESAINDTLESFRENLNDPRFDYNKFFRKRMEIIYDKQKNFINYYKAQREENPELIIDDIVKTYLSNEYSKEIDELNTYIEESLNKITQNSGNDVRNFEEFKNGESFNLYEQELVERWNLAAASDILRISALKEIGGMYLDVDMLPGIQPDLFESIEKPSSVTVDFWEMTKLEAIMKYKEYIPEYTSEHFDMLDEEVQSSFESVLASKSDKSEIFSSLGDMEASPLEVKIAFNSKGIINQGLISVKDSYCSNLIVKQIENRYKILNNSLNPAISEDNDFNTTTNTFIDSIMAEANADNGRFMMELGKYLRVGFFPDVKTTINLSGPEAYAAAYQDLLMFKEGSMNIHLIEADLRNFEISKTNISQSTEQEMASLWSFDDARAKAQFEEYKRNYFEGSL
Description: biochemical.
In the case of `Cc1nnc(NC(=O)c2ccc(CN3C(=O)c4ccc(Cl)cc4NC(=O)[C@H]3Cc3ccccn3)cc2)s1` [Example 4bn, (R)-4-((8-chloro-2,5-dioxo-3-(pyridin-2-ylmethyl)-2,3-dihydro-1H-benzo[e][1,4]diazepin-4(5H)-yl)methyl)-N-(5-methyl-1,3,4-thiadiazol-2-yl)benzamide], the IC50 (as a rule, the concentration at which inhibition is half-maximal) lay within 1000 to 10000 nM.

Regarding `Cc1cc(CN2C(=O)c3ccc(Cl)cc3NC(=O)[C@H]2Cc2ccccn2)ccc1C(=O)O` [Example 7b, (R)-4-((8-chloro-2,5-dioxo-3-(pyridin-2-ylmethyl)-2,3-dihydro-1H-benzo[e][1,4]diazepin-4(5H)-yl)methyl)-2-methylbenzoic acid], the IC50 lay within 100 to 999 nM.

With `Cn1cnc(C(=O)Nc2ccc(CN3C(=O)c4ccc(Cl)cc4NC(=O)[C@H]3Cc3ccccn3)cc2)c1` [Example 27k], the IC50 is less than 100 nM.

Take `Cc1cnc(NC(=O)c2ccc(CN3C(=O)c4ccc(Cl)cc4NC(=O)[C@H]3Cc3cnccn3)cc2)nc1` [Example 5z, 4-((8-chloro-2,5-dioxo-3-(pyrazin-2-ylmethyl)-2,3-dihydro-1H-benzo[e][1,4]diazepin-4(5H)-yl)methyl)-N-(5-methylpyrimidin-2-yl)benzamide]: the IC50 is less than 100 nM.

As to `Cc1cccc(C(=O)c2ccc(CN3C(=O)c4ccc(Cl)cc4NC(=O)[C@H]3Cc3ccccn3)cc2)n1` [Example 11e, (R)-8-chloro-4-(4-(6-methylpicolimoyl)benzyl)-3-(pyridin-2-ylmethyl)-3,4-dihydro-1H-benzo[e][1,4]diazepine-2,5-dione], the IC50 lay in the range of 100 to 999 nM.

For `O=C1Nc2cc(Cl)ccc2C(=O)N(Cc2ccc(C(=O)N3CCc4cccnc43)cc2)[C@@H]1Cc1ccccn1` [Example 4ah, (R)-8-chloro-4-(4-(2,3-dihydro-1H-pyrrolo[2,3-b]pyridine-1-carbonyl)benzyl)-3-(pyridin-2-ylmethyl)-3,4-dihydro-1H-benzo[e][1,4]diazepine-2,5-dione], the IC50 was less than 100 nM.

`COc1ccc(COc2cc(CN3C(=O)c4ccc(Cl)cc4NC(=O)[C@H]3C)ccc2C(=O)O)cc1` [Example 38a, (R)-2-(4-Methoxybenzyloxy)-4-((8-chloro-3-methyl-2,5-dioxo-2,3-dihydro-1H-benzo[e][1,4]diazepin-4(5H)-yl)methyl)benzoic Acid]: the IC50 lay within 10000 to 35000 nM.

As to `Cc1ccc(NC(=O)c2ccc(CN3C(=O)c4ccc(Cl)cc4NC(=O)[C@H]3CCN3CCOCC3)cc2)nc1` [Example 10a, (R)-4-((8-Chloro-3-(2-morpholinoethyl)-2,5-dioxo-2,3-dihydro-1H-benzo[e][1,4]diazepin-4(5H)-yl)methyl)-N-(5-methylpyridin-2-yl)benzamide], the IC50 was 1000 to 10000 nM.

As to `Cc1ccc(NC(=O)c2ccc(CN3C(=O)c4ccc(Cl)cc4NC(=O)[C@H]3Cc3cscn3)cc2)nc1` [Example 4al, (R)-4-((8-chloro-2,5-dioxo-3-(thiazol-4-ylmethyl)-2,3-dihydro-1H-benzo[e][1,4]diazepin-4(5H)-yl)methyl)-N-(5-methylpyridin-2-yl)benzamide], the IC50 is less than 100 nM.

Regarding `Cc1nsc(NC(=O)c2ccc(CN3C(=O)c4ccc(Cl)cc4NC(=O)[C@H]3Cc3ccccn3)cc2)n1` [Example 4bk, (R)-4-((8-chloro-2,5-dioxo-3-(pyridin-2-ylmethyl)-2,3-dihydro-1H-benzo[e][1,4]diazepin-4(5H)-yl)methyl)-N-(3-methyl-1,2,4-thiadiazol-5-yl)benzamide], the IC50 lay in the range of 10000 to 35000 nM.

Consider `Cc1cc(CN2C(=O)c3ccc(Cl)cc3NC(=O)[C@H]2Cc2ccccn2)cc(C)c1NC(=O)c1ccccn1` [Example 26k], for which the IC50 lay in the range of 100 to 999 nM.

Consider `COc1ccc2c(c1)NC(=O)[C@@H](Cc1ccc(Cl)c(Cl)c1)N(Cc1ccc(C(=O)Nc3ccccn3)cc1)C2=O` [Example 4l, (R)-4-((3-(3,4-dichlorobenzyl)-8-methoxy-2,5-dioxo-2,3-dihydro-1H-benzo[e][1,4]diazepin-4(5H)-yl)methyl)-N-(pyridin-2-yl)benzamide], for which the 50% inhibitory concentration (IC50) was less than 100 nM.

For the compound `O=C(CS)Nc1ccc(CN2C(=O)c3ccc(Cl)cc3NC(=O)[C@H]2Cc2ccccn2)cc1` [Example 29a, (R)—N-(4-((8-Chloro-2,5-dioxo-3-(pyridin-2-ylmethyl)-2,3-dihydro-1H-benzo[e][1,4]diazepin-4(5H)-yl)methyl)phenyl)-2-mercaptoacetamide], the IC50 lay in the range of 1000 to 10000 nM.

`CC(C)C[C@@H]1C(=O)Nc2cc(Cl)ccc2C(=O)N1Cc1ccc(C(=O)Nc2ccccn2)cc1` [Example 35k]: the IC50 fell in the range of 10000 to 35000 nM.

Take `O=C(Nc1ccc(CN2C(=O)c3ccc(Cl)cc3NC(=O)[C@H]2Cc2ccccn2)cc1)c1cccnc1O` [Example 27a, (R)—N-(4-((8-Chloro-2,5-dioxo-3-(pyridin-2-ylmethyl)-2,3-dihydro-1H-benzo[e][1,4]diazepin-4(5H)-yl)methyl)phenyl)-2-hydroxynicotinamide]: the IC50 was 1000 to 10000 nM.

For the compound `O=C1Nc2cc(Cl)ccc2C(=O)N(Cc2ccc3c(Nc4ccccn4)nccc3c2)[C@@H]1Cc1ccccn1` [Example 49e], the IC50 was less than 100 nM.

With `O=C(O)c1ccc(CN2C(=O)c3ccc(Cl)cc3NC(=O)C2Cc2cnccn2)cc1` (centres unmarked) [Example 1l], the half-maximal inhibitory concentration (IC50) fell in the range of 1000 to 10000 nM.

Take `O=C(O)c1c(Cl)cc(CN2C(=O)c3ccc(Cl)cc3NC(=O)[C@H]2Cc2ccccn2)cc1Cl` [Example 7c, (R)-2,6-dichloro-4-((8-chloro-2,5-dioxo-3-(pyridin-2-ylmethyl)-2,3-dihydro-1H-benzo[e][1,4]diazepin-4(5H)-yl)methyl)benzoic acid]: the IC50 lay in the range of 1000 to 10000 nM.

For the compound `COc1cnc(NC(=O)c2ccc(S(=O)(=O)N3Cc4ccc(Cl)cc4NC(=O)[C@H]3Cc3ccccn3)cc2)nc1` [Example 19h, (R)-4-((8-chloro-2-oxo-3-(pyridin-2-ylmethyl)-2,3-dihydro-1H-benzo[e][1,4]diazepin-4(5H)-yl)sulfonyl)-N-(5-methoxypyrimidin-2-yl)benzamide], the IC50 was less than 100 nM.

Take `O=C(Nc1ccc(N2CCNCC2)cn1)c1ccc(CN2C(=O)c3ccc(Cl)cc3NC(=O)[C@H]2Cc2ccccn2)cc1` [Example 48a, (R)-4-((8-Chloro-2,5-dioxo-3-(pyridin-2-ylmethyl)-2,3-dihydro-1H-benzo[e][1,4]diazepin-4(5H)-yl)methyl)-N-(5-(piperazin-1-yl)pyridin-2-yl)benzamide hydrochloride]: the IC50 was less than 100 nM.

In the case of `Cc1cnc(NC(=O)c2ccc(CN3C(=O)c4ccc(Cl)cc4NC(=O)[C@H]3Cc3ccccn3)cc2Cl)nc1` [Example 5as, (R)-2-chloro-4-((8-chloro-2,5-dioxo-3-(pyridin-2-ylmethyl)-2,3-dihydro-1H-benzo[e][1,4]diazepin-4(5H)-yl)methyl)-N-(5-methylpyrimidin-2-yl)benzamide], the IC50 was less than 100 nM.

On to `COc1cccc(-c2cc(CN3C(=O)c4ccc(Cl)cc4NC(=O)[C@H]3Cc3ccccn3)ccc2C(=O)O)c1` [Example 8b, (R)-5-((8-chloro-2,5-dioxo-3-(pyridin-2-ylmethyl)-2,3-dihydro-1H-benzo[e][1,4]diazepin-4(5H)-yl)methyl)-3′-methoxy-[1,1′-biphenyl]-2-carboxylic acid], for which the 50% inhibitory concentration (IC50) was in the range of 100 to 999 nM.

Turning to `COc1ccc(NC(=O)c2ccc(CN3C(=O)c4ccc(Cl)cc4NC(=O)[C@H]3Cc3ccccn3)cc2OC)nc1` [Example 4cn, (R)-4-((8-chloro-2,5-dioxo-3-(pyridin-2-ylmethyl)-2,3-dihydro-1H-benzo[e][1,4]diazepin-4(5H)-yl)methyl)-2-methoxy-N-(5-methoxypyridin-2-yl)benzamide], the IC50 is less than 100 nM.

Take `CC1(C)CN(C(=O)c2ccc(CN3C(=O)c4ccc(Cl)cc4NC(=O)[C@H]3Cc3ccccn3)cc2Cl)c2ncccc21` [Example 4as, (R)-8-chloro-4-(3-chloro-4-(3,3-dimethyl-2,3-dihydro-1H-pyrrolo[2,3-b]pyridine-1-carbonyl)benzyl)-3-(pyridin-2-ylmethyl)-3,4-dihydro-1H-benzo[e][1,4]diazepine-2,5-dione]: the half-inhibitory concentration (IC50) was less than 100 nM.

For `O=C(O)c1ccc(CN2C(=O)c3ccc(Cl)cc3NC(=O)[C@H]2Cc2cccc(Cl)c2)cc1` [Example 3f], the IC50 is 1000 to 10000 nM.

In the case of `O=C(Nc1ccc(CN2C(=O)c3ccc(Cl)cc3NC(=O)[C@H]2Cc2ccccn2)cc1)c1ncccc1Cl` [Example 26g], the IC50 fell in the range of 1000 to 10000 nM.

As for `Nc1ccc(CN2C(=O)c3ccc(Cl)cc3NC(=O)[C@H]2Cc2ccccn2)cc1` [Example 23a, (R)-4-(4-Aminobenzyl)-8-chloro-3-(pyridin-2-ylmethyl)-3,4-dihydro-1H-benzo[e][1,4]diazepine-2,5-dione], the IC50 was in the range of 1000 to 10000 nM.

For `O=C(O)c1ccc(CN2C(=O)c3ccc(Cl)cc3NC(=O)[C@H]2Cc2ccccn2)cc1-c1ccc(Cl)cc1` [Example 8i, (R)-4′-chloro-5-((8-chloro-2,5-dioxo-3-(pyridin-2-ylmethyl)-2,3-dihydro-1H-benzo[e][1,4]diazepin-4(5H)-yl)methyl)-[1,1′-biphenyl]-2-carboxylic acid], the IC50 fell in the range of 100 to 999 nM.

Turning to `O=C(c1ccc(CN2C(=O)c3ccc(Cl)cc3NC(=O)[C@H]2Cc2ccccn2)cc1)c1cccn2ncnc12` [Example 31f], the IC50 was less than 100 nM.

Regarding `O=C(Nc1ncccc1F)c1ccc(CN2C(=O)c3ccc(Cl)cc3NC(=O)[C@H]2Cc2ccccn2)cc1Cl` [Example 5ac, (R)-2-chloro-4-((8-chloro-2,5-dioxo-3-(pyridin-2-ylmethyl)-2,3-dihydro-1H-benzo[e][1,4]diazepin-4(5H)-yl)methyl)-N-(3-fluoropyridin-2-yl)benzamide], the IC50 is less than 100 nM.

On to `Cc1ccc(NC(=O)c2ccc(CN3C(=O)c4ccc(NC(=O)c5cc(C)on5)cc4NC(=O)[C@H]3C)cc2)nc1` [Example 18c, (R)-5-methyl-N-(3-methyl-4-(4-((5-methylpyridin-2-yl)carbamoyl)benzyl)-2,5-dioxo-2,3,4,5-tetrahydro-1H-benzo[e][1,4]diazepin-8-yl)isoxazole-3-carboxamide], for which the IC50 fell in the range of 1000 to 10000 nM.

On to `O=C(Nc1ccccn1)c1ccc(CN2C(=O)c3ccc(Cl)cc3NC(=O)[C@@H]2Cc2ccccn2)cc1` [Example 4aq, (S)-4-((8-chloro-2,5-dioxo-3-(pyridin-2-ylmethyl)-2,3-dihydro-1H-benzo[e][1,4]diazepin-4(5H)-yl)methyl)-N-(pyridin-2-yl)benzamide], for which the IC50 was less than 100 nM.
